{"source": "patent US6087327A", "about": "(priority 1998, dated 2000)", "origin": "cited, not measured here", "test_system": "neurotransmitter release process", "data": [{"smiles": "Nc1ccncc1", "note": "[aminopyridine]", "values": [{"measurement": "reversal of inhibition produced by botulinum neurotoxin A", "result": "more effective"}]}]}
